From ChEMBL document CHEMBL1129172, “Synthesis of water soluble prodrug of DMP323” (Bioorg Med Chem Lett, 1996)
Values after ≈ are worked out from the molar mass of the structure shown.

Legend:
[1] = Compound was evaluated for oral bioavailability in dogs; 37-38 %; type: ADME, organism-based, Canis lupus familiaris; details: dog, in vivo
[2] = Solubility in water.; type: physicochemical; details: read-out: S

bioavailability [1]: 38%
solubility [2]: 10 µg/mL (≈ 17.6 µM)
Structure (SMILES): O=C1N(Cc2ccc(CO)cc2)[C@H](Cc2ccccc2)[C@H](O)[C@@H](O)[C@@H](Cc2ccccc2)N1Cc1ccc(CO)cc1 [DMP-323]
